Results reported in patent US8501991B2, “P53 activating compounds” (University Court of the University of Dundee, priority 2006, dated 2013).
Counter-ions that a name gives are not always drawn.

Experiments:
[1] = system: p53-dependent transcription; test: p53-dependent transcription in T22 RGC-ΔFos-lacZ cells (primary screen, beta-galactosidase/CPRG); assay type: cell-based; conditions: for Bioactivity (relative to JJ91): p53-dependent transcription in T22 RGC-ΔFos-lacZ cells, JJ91 activity taken as 100%
SKNSH-DDp53 cells = test: FACS analysis of neuroblastoma cells with inactivated p53; assay type: cell-based; conditions: 10 μM, 48 hours, SKNSH cells with inactive p53
Experimental: Neuroblastoma cell lines SKNSH-CMVNeo (with functional p53) and SKNSH-DDp53 (inactivated p53) were used and are described by Smart P, Lane E B, Lane D P, Midgley C, Vojtesek B, Lain S. in Oncogene. 1999 Dec. 2; 18(51):7378-86.
• Seed 50,000 cells per well of a 6 well plate in DMEM-10% FCS Day 2 • Add drugs to cells Day 4 • Add bromodeoxyuridine (BrdU) to 30 μM and incubate cells for 20 minutes. • Remove media from cells and transfer to a 13 ml Falcon tube. Rinse cells with PBS and transfer this also. Trypsinise cells and transfer to tube then finally rinse with PBS again. Once all transferred to tube, pellet cells at 1500 rpm for 5 minutes. • Resuspend cells in 1 ml of PBS and add drop wise to 3 ml of ethanol while vortexing. Incubate for a minimum of 1-2 hours at 4° C. (no maximum). […] Keep on ice in the dark until analysed on the FACScan. • Measure DNA content (propidium iodide fluorescence) and DNA synthesis (BrdU incorporation) by FACScan. […]
Cells were analysed by FACS analysis.

p53 = test: Western blotting of MCF-7 cell extracts; assay type: cell-based; conditions: MCF-7 cells, 10 μM
Experimental: • Seed 50,000 cells per well of a 6 well plate in DMEM-10% FCS Day 2 • Add drugs to cells Day 4 • Add bromodeoxyuridine (BrdU) to 30 μM and incubate cells for 20 minutes. • Remove media from cells and transfer to a 13 ml Falcon tube. Rinse cells with PBS and transfer this also. Trypsinise cells and transfer to tube then finally rinse with PBS again. Once all transferred to tube, pellet cells at 1500 rpm for 5 minutes. • Resuspend cells in 1 ml of PBS and add drop wise to 3 ml of ethanol while vortexing. Incubate for a minimum of 1-2 hours at 4° C. (no maximum). Day 5 • Pellet by centrifugation at 2,500 rpm for 5 minutes then pour off supernatant. • Prepare 2 ml fresh pepsin solution per tube at 1 mg/ml in 30 mM HCl (pH 1.5) and prewarm to 37° C. • Add 2 ml prewarmed pepsin solution to each tube and mix for 30 mins at 37° C. • Pellet by centrifugation at 2500 rpm for 5 minutes then pour off supernatant (pellets will be clear) • Add 1 ml 2M HCl for 15-20 mins at room temperature (stock bottle is 11.6 M). • Timing is critical—incubating for long periods results in broad DNA peaks. • Top up with PBS then pellet as before. • Wash again with PBS then once in antibody buffer, pelleting cells each time. • Antibody buffer: PBS, 0.5% BSA, 0.5% Tween-20 • Resuspend pellet into 200 μl of Becton Dickinson anti-BrdU antibody diluted 1:50 in antibody buffer. Incubate for 1 h at room temperature. • Wash in PBS and pellet cells. • Resuspend pellet in 200 μl Sigma FITC antibody (#3008) diluted 1:64 in antibody buffer. Incubate for 30 min at room temperature in the dark to prevent the antibody fading. • Wash in PBS and pellet cells. • Resuspend final pellet in 500 μl PBS containing 25 μg/ml propidium iodide counter stain. Keep on ice in the dark until analysed on the FACScan. • Measure DNA content (propidium iodide fluorescence) and DNA synthesis (BrdU incorporation) by FACScan. 3. […]
Levels of the p53 downstream target p21 are increased Actin was analysed as a loading control.

[2] = Blood levels after administration to mice (LC-MS/MS); assay type: in vivo; conditions: 5 mg/kg, intraperitoneal injection
Experimental: Blood levels were determined at the times shown by LC-MS/MS above and the values shown are the means±SD for three determinations.

[3] = system: BL2 Burkitt lymphoma cells; test: Survival of BL2 Burkitt lymphoma cells; assay type: cell-based; conditions: 1 μM to 10 μM in 70% cyclodextrin, 2 hours exposure daily for six days
Experimental: At this time, the number of live cells were counted. After this short exposure, cells were washed to remove the compound. This treatment was repeated daily for six days. Experiments were performed in triplicate and standard deviations indicated.

[4] = system: BL2 Burkitt lymphoma xenograft tumours; test: BL2 Burkitt lymphoma xenograft tumours in SCID mice; assay type: in vivo; conditions: 92 mg/kg daily by intraperitoneal injection, measured to day 11
Experimental: Referring to FIG. 7, BL2 Burkitt lymphoma xenograft tumours in SCID mice were established for 7 days until tumours were palpable. […] Tumour sizes were measured on the day of injection (day 1) and on days 4, 8 and 11 post-injection.

SirT1 = SirT1 (Homo sapiens (Human), UniProt Q96EB6); test: In vitro deacetylation assay (Fluor de Lys SirT1 Fluorescent Activity Assay); assay type: biochemical; conditions: FdL substrate 7 μM, NAD+ 1 mM, 37° C., 1 hour; read-out: SIRT1 inhibition IC50
Sequence of SirT1 (Q96EB6 whole entry): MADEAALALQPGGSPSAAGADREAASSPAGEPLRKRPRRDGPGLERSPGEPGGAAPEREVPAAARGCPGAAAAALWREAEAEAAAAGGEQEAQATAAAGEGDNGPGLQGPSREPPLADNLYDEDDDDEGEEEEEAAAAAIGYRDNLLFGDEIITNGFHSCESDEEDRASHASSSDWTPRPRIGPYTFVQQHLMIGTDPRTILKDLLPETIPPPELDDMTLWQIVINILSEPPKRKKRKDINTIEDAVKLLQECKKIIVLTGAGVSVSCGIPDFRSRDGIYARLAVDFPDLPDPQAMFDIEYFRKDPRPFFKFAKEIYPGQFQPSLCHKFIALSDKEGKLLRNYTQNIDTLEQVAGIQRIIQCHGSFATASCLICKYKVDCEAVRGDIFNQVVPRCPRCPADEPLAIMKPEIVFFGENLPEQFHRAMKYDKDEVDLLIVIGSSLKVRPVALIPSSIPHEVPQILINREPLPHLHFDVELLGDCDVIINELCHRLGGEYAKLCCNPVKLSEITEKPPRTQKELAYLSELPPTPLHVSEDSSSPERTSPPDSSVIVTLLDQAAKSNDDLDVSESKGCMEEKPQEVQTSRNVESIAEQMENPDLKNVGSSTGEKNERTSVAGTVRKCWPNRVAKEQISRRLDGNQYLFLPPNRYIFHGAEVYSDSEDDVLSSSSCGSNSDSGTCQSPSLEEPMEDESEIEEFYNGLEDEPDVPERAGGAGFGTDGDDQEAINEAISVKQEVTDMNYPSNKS

IC50 (SirT1) [µM]	Structure (SMILES)	Bioactivity (relative to JJ91) [1]	also measured
–	CC(=O)Nc1ccc(NC(=S)NC(=O)c2ccc(C(C)(C)C)cc2)cc1 [JJ91, N-{4-[3-(4-tert-Butyl-benzoyl)-thioureido]-phenyl}-acetamide]	–	p53 transcription factor function ([1]; T22 RGC-ΔFos-lacZ cells treated 16 hours): activates p53's transcription factor function; effects on DNA synthesis and cell death (SKNSH-DDp53 cells): not observed; levels of the p53 downstream target p21 (p53): increased; p53 levels (p53): rapidly increased; levels of p53 phosphoserine-15 (p53; compared with mitomycin C 10 μM): not as high as those observed with the genotoxic gent mitomycin C; concentrations in blood [2]: reach micromolar concentrations in blood; weight or behavioural changes [2]: do not cause significant weight or behavioural changes; half-life ([2]; mouse, ip, blood): ~1.3 h; BL2 cell survival [3]: largely reduced; growth of BL2 xenograft tumours [4]: reduces growth of BL2 xenograft tumours
–	CC(C)(C)c1ccc(C(=O)NC(=S)Nc2ccc(NC(=O)c3ccccc3)cc2)cc1 [JH151]	Active (106.1%)	–
–	CC(C)(C)c1ccc(C(=O)NC(=S)Nc2ccc(NC(=O)CCCCN3CCOCC3)cc2)cc1.Cl [JH156HCl]	Active (59.6%)	–
32 ± 9	CN(C)CCCC(=O)Nc1ccc(NC(=S)NC(=O)c2ccc(C(C)(C)C)cc2)cc1 [Compound 5, N-{4-[3-(4-tert-Butyl-benzoyl)-thioureido]-phenyl}-4-dimethylamino-butyramide hydrochloride]	–	–
> 60	CN(C)CCOCCOCCOCCOCCOCC(=O)Nc1ccc(NC(=S)NC(=O)c2ccc(C(C)(C)C)cc2)cc1 [Compound 8, N-{4-[3-(4-tert-Butyl-benzoyl)-thioureido]-phenyl}-2-[2-(2-{2-[2-(2-dimethylamino-ethoxy)-ethoxy]-ethoxy}-ethoxy)-ethoxy]-acetamide hydrochloride]	–	–
29	CN(C)CCCCC(=O)Nc1ccc(NC(=O)NC(=O)c2ccc(C(C)(C)C)cc2)cc1 [Compound 24, 5-Dimethylamino-pentanoic acid {4-[3-(4-tert-butyl-benzoyl)-ureido]-phenyl}-amide hydrochloride]	–	–
16 ± 3	CN(C)CCCCCC(=O)Nc1ccc(NC(=S)NC(=O)c2ccc(C(C)(C)C)cc2)cc1 [Compound 6, 6-Dimethylamino-hexanoic acid {4-[3-(4-tert-butyl-benzoyl)-thioureido]-phenyl}-amide hydrochloride]	–	–
–	CC(C)(C)c1ccc(C(=O)NC(=S)Nc2ccc(NC(=O)CCCCN3CCOCC3)cc2)cc1 [JH156]	Active (75.4%)	–
–	CC(C)(C)c1ccc(C(=O)NC(=S)Nc2ccc(N)cc2)cc1 [JH129, 1-(4-Amino-phenyl)-3-(4-tert-butyl-benzoyl)-thiourea]	Active (<)	–
–	CC(C)C(=O)Nc1ccc(NC(=S)NC(=O)c2ccc(C(C)(C)C)cc2)cc1 [Compound 7322366]	Active (81.2%)	–
25 ± 10	CN(C)CCCCCCCC(=O)Nc1ccc(NC(=S)NC(=O)c2ccc(C(C)(C)C)cc2)cc1 [Compound 7, 8-Dimethylamino-octanoic acid {4-[3-(4-tert-butyl-benzoyl)-thioureido]-phenyl}-amide hydrochloride]	–	–
–	CC(C)(C)c1ccc(C(=O)NC(=S)Nc2ccc(NC(=O)CCCCBr)cc2)cc1 [JH140, 5-bromo-pentanoic acid {4-[3-(4-tert-butyl-benzoyl)-thioureido]-phenyl}-amide]	Active (87.5%)	–
–	CC(C)(C)OC(=O)Nc1ccc(NC(=S)NC(=O)c2ccc(C(C)(C)C)cc2)cc1 [Compound 21, {4-[3-(4-tert-Butyl-benzoyl)-thioureido]-phenyl}-carbamic acid tert-butyl ester]	–	activity in the p53 activation assay (in words) [1]: very good activity
